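These data come from cells grown in 96-well plates and exposed to compound for 48 hours at five concentrations. TGI marks complete inhibition of growth.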
How the values were obtained:
Assay in all cases: NCI tumour cell line growth inhibition, 48 h
SF-268 CNS = system: SF-268 CNS
RPMI-8226 leukemia = system: RPMI-8226 leukemia
CCRF-CEM leukemia = system: CCRF-CEM leukemia
HT29 colon = system: HT29 colon
A549 NSCLC = system: A549 NSCLC
HCC-2998 colon = system: HCC-2998 colon
HCT-15 colon = system: HCT-15 colon
TK-10 renal = system: TK-10 renal
OVCAR-3 ovarian = system: OVCAR-3 ovarian
UACC-62 melanoma = system: UACC-62 melanoma
SNB-19 CNS = system: SNB-19 CNS
MALME-3M melanoma = system: MALME-3M melanoma

O=C(Cc1ccccc1)N/N=C(/CCN1CCCC1)CC(c1ccccc1)c1c(O)c2ccccc2oc1=O (configuration not stated)
TGI (SF-268 CNS): > 100 µM
TGI (RPMI-8226 leukemia): > 100 µM
TGI (CCRF-CEM leukemia): > 100 µM
TGI (HT29 colon): > 100 µM
TGI (A549 NSCLC): > 100 µM
TGI (HCC-2998 colon): > 100 µM
TGI (HCT-15 colon): > 100 µM
TGI (TK-10 renal): > 100 µM
TGI (OVCAR-3 ovarian): > 100 µM
TGI (UACC-62 melanoma): > 100 µM
TGI (SNB-19 CNS): > 100 µM
TGI (MALME-3M melanoma): > 100 µM

Cc1sc2ncnc(NCCc3ccccc3)c2c1C
TGI (SF-268 CNS): 60.1 µM
TGI (RPMI-8226 leukemia): 42.8 µM
TGI (CCRF-CEM leukemia): 49.3 µM
TGI (HT29 colon): 45.3 µM
TGI (A549 NSCLC): 83 µM
TGI (HCC-2998 colon): 31.1 µM
TGI (HCT-15 colon): 87.7 µM
TGI (TK-10 renal): 46.5 µM
TGI (OVCAR-3 ovarian): > 100 µM
TGI (UACC-62 melanoma): 24.6 µM
TGI (SNB-19 CNS): > 100 µM
TGI (MALME-3M melanoma): 52.3 µM

CCc1cc(Cc2cc(CC)c(NC(=O)C3=CC(=O)CC(c4ccc(OC)cc4)O3)c(CC)c2Cl)c(Cl)c(CC)c1NC(=O)C1=CC(=O)CC(c2ccc(OC)cc2)O1 (configuration not stated)
TGI (SF-268 CNS): 58.2 µM
TGI (RPMI-8226 leukemia): 46.8 µM
TGI (CCRF-CEM leukemia): 90.2 µM
TGI (HT29 colon): 36.4 µM
TGI (A549 NSCLC): 43.8 µM
TGI (HCC-2998 colon): 30.4 µM
TGI (HCT-15 colon): 53.7 µM
TGI (TK-10 renal): 51.7 µM
TGI (OVCAR-3 ovarian): 38.2 µM
TGI (UACC-62 melanoma): 63.2 µM
TGI (SNB-19 CNS): 42.7 µM
TGI (MALME-3M melanoma): 37.2 µM

c1ccc(C2=NN(c3ccccc3)C3(S2)SC(c2ccccc2)(c2ccccc2)c2ccccc23)cc1 (configuration not stated)
TGI (SF-268 CNS): > 100 µM
TGI (RPMI-8226 leukemia): > 100 µM
TGI (CCRF-CEM leukemia): > 100 µM
TGI (HT29 colon): > 100 µM
TGI (A549 NSCLC): > 100 µM
TGI (HCC-2998 colon): > 100 µM
TGI (HCT-15 colon): > 100 µM
TGI (TK-10 renal): > 100 µM
TGI (OVCAR-3 ovarian): > 100 µM
TGI (UACC-62 melanoma): > 100 µM
TGI (SNB-19 CNS): > 100 µM
TGI (MALME-3M melanoma): > 100 µM

COc1ccc(CSCc2cc(OC)c(OC)c(OC)c2)cc1
TGI (SF-268 CNS): > 100 µM
TGI (RPMI-8226 leukemia): > 100 µM
TGI (CCRF-CEM leukemia): > 100 µM
TGI (HT29 colon): > 100 µM
TGI (A549 NSCLC): > 100 µM
TGI (HCC-2998 colon): > 31.6 µM
TGI (HCT-15 colon): > 100 µM
TGI (TK-10 renal): > 100 µM
TGI (OVCAR-3 ovarian): > 100 µM
TGI (UACC-62 melanoma): > 100 µM
TGI (SNB-19 CNS): > 100 µM
TGI (MALME-3M melanoma): > 31.6 µM

CC(=O)NNC=N/C(C#N)=C(\N)C#N
TGI (SF-268 CNS): > 100 µM
TGI (RPMI-8226 leukemia): > 100 µM
TGI (CCRF-CEM leukemia): > 100 µM
TGI (HT29 colon): > 100 µM
TGI (A549 NSCLC): > 100 µM
TGI (HCC-2998 colon): > 100 µM
TGI (HCT-15 colon): > 100 µM
TGI (TK-10 renal): > 100 µM
TGI (OVCAR-3 ovarian): > 100 µM
TGI (UACC-62 melanoma): > 100 µM
TGI (SNB-19 CNS): > 100 µM
TGI (MALME-3M melanoma): > 100 µM

COc1ccc(/C=C/C(=O)NCC(NC(=O)/C=C/c2ccc(OC)c(OC)c2)C(=O)O)cc1OC (configuration not stated)
TGI (SF-268 CNS): > 100 µM
TGI (RPMI-8226 leukemia): > 100 µM
TGI (CCRF-CEM leukemia): > 100 µM
TGI (HT29 colon): > 100 µM
TGI (A549 NSCLC): > 100 µM
TGI (HCC-2998 colon): > 100 µM
TGI (TK-10 renal): > 100 µM
TGI (OVCAR-3 ovarian): > 100 µM
TGI (UACC-62 melanoma): > 100 µM
TGI (SNB-19 CNS): > 100 µM
TGI (MALME-3M melanoma): > 100 µM

CCOc1ccc(NCC(=O)N2CC(=O)Nc3ccccc32)cc1
TGI (SF-268 CNS): > 100 µM
TGI (RPMI-8226 leukemia): > 100 µM
TGI (CCRF-CEM leukemia): > 100 µM
TGI (HT29 colon): > 100 µM
TGI (A549 NSCLC): > 100 µM
TGI (HCC-2998 colon): > 100 µM
TGI (HCT-15 colon): > 100 µM
TGI (TK-10 renal): > 100 µM
TGI (OVCAR-3 ovarian): > 100 µM
TGI (UACC-62 melanoma): > 100 µM
TGI (SNB-19 CNS): > 100 µM
TGI (MALME-3M melanoma): > 100 µM

O=C(CNC(=O)OCc1ccccc1)NCCCCC(NC(=O)OCc1ccccc1)C(=O)O (configuration not stated)
TGI (SF-268 CNS): > 100 µM
TGI (RPMI-8226 leukemia): > 100 µM
TGI (CCRF-CEM leukemia): > 100 µM
TGI (HT29 colon): > 100 µM
TGI (A549 NSCLC): > 100 µM
TGI (HCC-2998 colon): > 100 µM
TGI (HCT-15 colon): > 100 µM
TGI (TK-10 renal): > 100 µM
TGI (OVCAR-3 ovarian): > 100 µM
TGI (UACC-62 melanoma): > 100 µM
TGI (SNB-19 CNS): > 100 µM
TGI (MALME-3M melanoma): > 100 µM
